One block for each compound: values may come before it. The source made the active and inactive calls. The calls are words filed in the database; no cut-off is given here.
What was measured:
[1] = biological target: T1, Lysine-specific histone demethylase 1A (Homo sapiens, UniProt O60341)
Description: Inhibition of LSD1 (unknown origin) by fluorescence assay

[2] = biological target: T1, Lysine-specific histone demethylase 1A; test: Inhibition of LSD1 (unknown origin)
[3] = tested on: MDA-MB-231; test: Induction of apoptosis in human MDA-MB-231 cells transfected with LSD1 siRNA assessed as increase in cleaved caspase-9 level at 8 uM after 24 hrs by Western blot analysis; format: functional, cell-based
[4] = tested on: MDA-MB-231; test: Induction of apoptosis in human MDA-MB-231 cells transfected with LSD1 siRNA assessed as necrosis cells level at 8 uM after 24 hrs by Annexin V-FITC/propidium iodide staining-based flow cytometric analysis relative to control; format: functional
[5] = tested on: MDA-MB-231; test: Induction of apoptosis in human MDA-MB-231 cells assessed as late apoptosis level at 8 uM after 24 hrs by Annexin V-FITC/propidium iodide staining-based flow cytometric analysis relative to control; format: functional
[6] = biological target: T1, Lysine-specific histone demethylase 1A; test: Competitive inhibition of LSD1 (unknown origin) using H3Kme2 as substrate by Lineweaver-Burk plot analysis
[7] = tested on: MDA-MB-231; test: Induction of apoptosis in human MDA-MB-231 cells transfected with LSD1 siRNA assessed as chromatin condensation at 8 uM after 24 hrs by Hoechst 33342 staining-based confocal laser scanning microscopic analysis; format: functional, cell-based
[8] = tested on: MDA-MB-231; test: Antiproliferative activity against human MDA-MB-231 cells transfected with LSD1 siRNA assessed as reduction in EdU incorporation at 8 uM after 24 hrs by Hoechst 33342 staining-based confocal laser scanning microscopic analysis; format: functional, cell-based
[9] = tested on: MDA-MB-231; test: Inhibition of colony formation in human MDA-MB-231 cells transfected with LSD1 siRNA; format: functional, cell-based
[10] = tested on: MDA-MB-231; test: Induction of apoptosis in human MDA-MB-231 cells transfected with LSD1 siRNA assessed as late apoptosis level at 8 uM after 24 hrs by Annexin V-FITC/propidium iodide staining-based flow cytometric analysis relative to control; format: functional
[11] = biological target: Lysine-specific demethylase 5A (Homo sapiens) (UniProt P29375); test: Inhibition of JARID1 in human MDA-MB-231 cells assessed as effect on H3K4me3 methylation by Western blot analysis; format: cell-based
Sequence of Lysine-specific demethylase 5A (Homo sapiens) (P29375 whole entry): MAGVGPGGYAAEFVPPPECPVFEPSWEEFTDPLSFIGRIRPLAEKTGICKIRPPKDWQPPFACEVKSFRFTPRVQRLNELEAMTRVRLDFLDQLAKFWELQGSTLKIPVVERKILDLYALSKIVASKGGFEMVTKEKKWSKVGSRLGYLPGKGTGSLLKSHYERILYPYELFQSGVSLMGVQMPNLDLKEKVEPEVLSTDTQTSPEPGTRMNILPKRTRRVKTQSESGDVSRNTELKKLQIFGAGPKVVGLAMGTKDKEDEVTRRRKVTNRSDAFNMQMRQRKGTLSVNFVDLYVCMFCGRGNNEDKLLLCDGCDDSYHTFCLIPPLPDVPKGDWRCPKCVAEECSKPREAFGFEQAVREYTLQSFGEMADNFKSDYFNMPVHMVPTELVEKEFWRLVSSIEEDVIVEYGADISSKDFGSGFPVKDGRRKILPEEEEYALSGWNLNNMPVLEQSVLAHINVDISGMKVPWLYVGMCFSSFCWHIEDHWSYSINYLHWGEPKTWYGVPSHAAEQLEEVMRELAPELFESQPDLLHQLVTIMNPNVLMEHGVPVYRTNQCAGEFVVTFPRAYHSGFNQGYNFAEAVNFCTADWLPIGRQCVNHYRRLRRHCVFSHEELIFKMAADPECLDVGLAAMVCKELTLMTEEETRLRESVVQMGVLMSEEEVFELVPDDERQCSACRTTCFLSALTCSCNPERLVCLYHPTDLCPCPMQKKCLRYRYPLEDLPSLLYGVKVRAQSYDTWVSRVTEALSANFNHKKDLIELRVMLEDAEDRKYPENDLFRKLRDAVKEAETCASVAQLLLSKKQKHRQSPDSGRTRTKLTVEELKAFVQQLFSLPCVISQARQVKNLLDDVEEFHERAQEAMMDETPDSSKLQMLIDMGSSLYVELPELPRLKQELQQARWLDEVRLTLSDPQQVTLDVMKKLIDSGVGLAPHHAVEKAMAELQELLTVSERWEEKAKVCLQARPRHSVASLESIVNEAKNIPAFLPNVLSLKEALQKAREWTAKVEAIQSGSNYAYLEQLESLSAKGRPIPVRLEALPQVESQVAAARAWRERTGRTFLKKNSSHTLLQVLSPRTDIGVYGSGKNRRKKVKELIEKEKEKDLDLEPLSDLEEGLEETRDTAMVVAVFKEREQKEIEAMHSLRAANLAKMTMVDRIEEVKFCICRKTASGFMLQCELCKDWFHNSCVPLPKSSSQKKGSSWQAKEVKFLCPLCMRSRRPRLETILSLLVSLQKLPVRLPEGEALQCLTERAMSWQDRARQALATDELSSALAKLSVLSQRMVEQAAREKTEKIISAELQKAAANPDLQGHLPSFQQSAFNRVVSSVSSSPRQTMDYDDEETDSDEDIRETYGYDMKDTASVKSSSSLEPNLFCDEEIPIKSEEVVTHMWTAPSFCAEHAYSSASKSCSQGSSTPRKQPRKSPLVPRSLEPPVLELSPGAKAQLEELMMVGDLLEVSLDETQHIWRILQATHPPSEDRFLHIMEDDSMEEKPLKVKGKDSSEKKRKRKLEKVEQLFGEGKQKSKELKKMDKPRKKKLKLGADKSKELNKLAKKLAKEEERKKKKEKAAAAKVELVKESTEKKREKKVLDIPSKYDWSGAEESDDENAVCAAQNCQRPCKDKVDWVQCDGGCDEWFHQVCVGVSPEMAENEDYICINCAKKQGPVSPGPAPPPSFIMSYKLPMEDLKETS

[12] = tested on: MDA-MB-231; test: Induction of apoptosis in human MDA-MB-231 cells assessed as increase in BAX/Bcl-2 protein ratio at 8 uM after 24 hrs by Western blot analysis; format: functional, cell-based
[13] = tested on: MDA-MB-231; test: Induction of apoptosis in human MDA-MB-231 cells transfected with LSD1 siRNA assessed as increase in cleaved PARP level at 8 uM after 24 hrs by Western blot analysis; format: functional, cell-based
[14] = tested on: MDA-MB-231; test: Effect on LSD1 protein levels in human MDA-MB-231 cells up to 8 uM by Western blot analysis; format: functional, cell-based
[15] = tested on: MDA-MB-231; test: Induction of apoptosis in human MDA-MB-231 cells transfected with LSD1 siRNA assessed as increase in cleaved caspase-7 level at 8 uM after 24 hrs by Western blot analysis; format: functional, cell-based
[16] = tested on: MDA-MB-231; test: Induction of apoptosis in human MDA-MB-231 cells transfected with LSD1 siRNA assessed as increase in BAX/Bcl-2 protein ratio at 8 uM after 24 hrs by Western blot analysis; format: functional, cell-based
[17] = tested on: MDA-MB-231; test: Induction of apoptosis in human MDA-MB-231 cells assessed as viable cells level at 8 uM after 24 hrs by Annexin V-FITC/propidium iodide staining-based flow cytometric analysis relative to control; format: functional
[18] = tested on: MDA-MB-231; test: Induction of apoptosis in human MDA-MB-231 cells transfected with LSD1 siRNA assessed as viable cells level at 8 uM after 24 hrs by Annexin V-FITC/propidium iodide staining-based flow cytometric analysis relative to control; format: functional
[19] = biological target: T1, Lysine-specific histone demethylase 1A; test: Inhibition of LSD1 in human MDA-MB-231 cells assessed as increase in H3K4me1 methylation by Western blot analysis; format: cell-based
[20] = tested on: MDA-MB-231; test: Induction of apoptosis in human MDA-MB-231 cells assessed as loss of mitochondrial membrane potential at 8 uM after 24 hrs by JC-1 staining-based flow cytometric analysis; format: functional, cell-based
[21] = tested on: MDA-MB-231; test: Antiproliferative activity against human MDA-MB-231 cells assessed as reduction in EdU incorporation at 8 uM after 24 hrs by Hoechst 33342 staining-based confocal laser scanning microscopic analysis; format: functional, cell-based
[22] = tested on: MDA-MB-231; test: Induction of apoptosis in human MDA-MB-231 cells transfected with LSD1 siRNA assessed as early apoptosis cells level at 8 uM after 24 hrs by Annexin V-FITC/propidium iodide staining-based flow cytometric analysis relative to control; format: functional
[23] = tested on: MDA-MB-231; test: Induction of apoptosis in human MDA-MB-231 cells assessed as early apoptosis cells level at 8 uM after 24 hrs by Annexin V-FITC/propidium iodide staining-based flow cytometric analysis relative to control; format: functional
[24] = tested on: MDA-MB-231; test: Induction of apoptosis in human MDA-MB-231 cells transfected with LSD1 siRNA assessed as increase in cleaved caspase-3 level at 8 uM after 24 hrs by Western blot analysis; format: functional, cell-based
[25] = tested on: MDA-MB-231; test: Induction of apoptosis in human MDA-MB-231 cells assessed as necrosis cells level at 8 uM after 24 hrs by Annexin V-FITC/propidium iodide staining-based flow cytometric analysis relative to control; format: functional
[26] = tested on: MDA-MB-231; test: Antiproliferative activity against human MDA-MB-231 cells transfected with NC siRNA after 24 hrs by MTT assay; format: functional, cell-based
[27] = biological target: T1, Lysine-specific histone demethylase 1A; test: Inhibition of LSD1 in human MDA-MB-231 cells assessed as increase in H3K9me2 methylation by Western blot analysis; format: cell-based
[28] = tested on: MDA-MB-231; test: Induction of apoptosis in human MDA-MB-231 cells transfected with LSD1 siRNA assessed as chromatinorrhexis at 8 uM after 24 hrs by Hoechst 33342 staining-based confocal laser scanning microscopic analysis; format: functional, cell-based
[29] = tested on: MDA-MB-231; test: Induction of apoptosis in human MDA-MB-231 cells transfected with LSD1 siRNA assessed as loss of mitochondrial membrane potential at 8 uM after 24 hrs by JC-1 staining-based flow cytometric analysis; format: functional, cell-based
[30] = tested on: MDA-MB-231; test: Antiproliferative activity against human MDA-MB-231 cells transfected with LSD1 siRNA after 24 hrs by MTT assay; format: functional, cell-based
[31] = biological target: T1, Lysine-specific histone demethylase 1A; test: Inhibition of LSD1 in human MDA-MB-231 cells assessed as increase in H3K4me2 methylation by Western blot analysis; format: cell-based

Structure (SMILES): O=c1cc(-c2ccccc2)oc2cc(O)c(O)c(O)c12 [BAICALEIN]
IC50 [2]: 12.5 µM

Structure (SMILES): O=C(O)[C@H]1O[C@@H](Oc2cc3oc(-c4ccccc4)cc(=O)c3c(O)c2O)[C@H](O)[C@@H](O)[C@@H]1O [BAICALIN]
IC50 [2]: 3.55 µM

Structure (SMILES): COc1ccc([C@@H]2CC(=O)c3c(O)cc(O)cc3O2)cc1O [HESPERETIN]
IC50 [1]: 78.8 µM

Structure (SMILES): COc1ccc([C@@H]2CC(=O)c3c(O)cc(O[C@@H]4O[C@H](CO[C@@H]5O[C@@H](C)[C@H](O)[C@@H](O)[C@H]5O)[C@@H](O)[C@H](O)[C@H]4O)cc3O2)cc1O [HESPERIDIN]
IC50 [1]: 19.2 µM

Structure (SMILES): O=c1c(O)c(-c2ccc(O)c(O)c2)oc2cc(O)cc(O)c12 [QUERCETIN]
IC50 [1]: 1.26 µM

Now from value to compound, other results behind:

IC50 [1]: 4.74 µM
Structure (SMILES): COc1ccc([C@@H]2CC(=O)c3c(O)cc(O[C@@H]4O[C@H](CO)[C@@H](O)[C@H](O)[C@H]4O)cc3O2)cc1O

IC50 [2]: 2.98 µM
Structure (SMILES): COc1c(O[C@@H]2O[C@H](C(=O)O)[C@@H](O)[C@H](O)[C@H]2O)cc(O)c2c(=O)cc(-c3ccccc3)oc12

IC50 [1]: 21.8 µM
Structure (SMILES): COc1ccc(-c2cc(=O)c3c(O)cc(O[C@@H]4O[C@H](CO)[C@@H](O)[C@H](O)[C@H]4O)cc3o2)cc1O

IC50 [1]: 16.7 µM
Structure (SMILES): COc1ccc(-c2oc3c(CC=C(C)C)c(O)cc(O)c3c(=O)c2O[C@@H]2O[C@@H](C)[C@H](O)[C@@H](O)[C@H]2O)cc1

IC50 [1]: 64.5 µM
Structure (SMILES): COc1ccc(-c2oc3c(CC=C(C)C)c(O)cc(O)c3c(=O)c2O)cc1 [ICARITIN]

Ki [6]: 1 µM
inhibition [11]: inactive
inhibition [19]: Active
inhibition [27]: Active
inhibition [31]: Active
IC50 [1]: 0.95 µM
Structure (SMILES): O=c1c(O[C@@H]2O[C@H](CO)[C@@H](O)[C@H](O)[C@H]2O)c(-c2ccc(O)c(O)c2)oc2cc(O)cc(O)c12 [ISOQUERCETIN]
Activity [3]: Active
Activity [4]: 1.5%
Activity [5]: 10.7%
Activity [7]: Active
Activity [8]: Active
inhibition [9]: Active
Activity [10]: 38.9%
Activity [12]: Active
Activity [13]: Active
Activity [14]: inactive
Activity [15]: Active
Activity [16]: Active
Activity [17]: 82.6%
Activity [18]: 56.1%
Activity [20]: Active
Activity [21]: Active
Activity [22]: 3.5%
Activity [23]: 1%
Activity [24]: Active
Activity [25]: 2.6%
Activity [26]: Active
Activity [28]: Active
Activity [29]: Active
Activity [30]: Active

IC50 [1]: 2.16 µM
Structure (SMILES): C[C@@H]1O[C@@H](OC[C@H]2O[C@@H](Oc3c(-c4ccc(O)c(O)c4)oc4cc(O)cc(O)c4c3=O)[C@H](O)[C@@H](O)[C@@H]2O)[C@H](O)[C@H](O)[C@H]1O [RUTIN]

From ChEMBL document CHEMBL4308904 (Bioorg Med Chem, 2019)
